Among the data in US11034725B2, “Compositions and methods for treating cardiovascular disease” (Genentech, Inc., priority 2016, dated 2021) are IC50 values, retold here.

SMILES strings stand for the structures. Read-outs that look alike come from different tables or passages of the source. Numbered stars: 1 amine (or outer) side, 2 acyl side, 3 side chain; on linkers, the order of the positions; unused ones are H or OH. Bridge positions count the residues as written; N and C are the ends. Square brackets hold non-standard residues; d marks the D form. Peptide text beside a SMILES is read from it. * marks the point of attachment. Trp(6-Br) = N[C@@H](Cc1c[nH]c2cc(Br)ccc12)C(=O)O; X9 = O=C([C@@H]1C(O)CCN1[*:1])[*:2]; hArg = N=C(N)NCCCC[C@H](N)C(=O)O; X25 = COc1cc(CCC(=O)*)ccc1O; Pentanoyl = CCCCC(=O)*

The subject of test [1] is His-EGF(A)-Fc. In words: His-EGF(A)-Fc TR-FRET counterscreen. (TR-FRET usually uses a lanthanide donor and a delayed reading to cut background.)
Test [2] deals with PCSK9 (Homo sapiens, UniProt Q8NBP7). In words: PCSK9/EGF(A) TR-FRET binding assay.
Test [3] deals with T1, PCSK9Δhelix (Homo sapiens, UniProt Q8NBP7).
T1 construct: Human PCSK9 construct M1-Q692 with an engineered TEV site (residue deletion Y166, R167); made in house; host or cells: CHO
In words: PCSK9Δhelix/Ab20 TR-FRET binding assay. As to conditions: Table 8E, additional compounds.

Where [4] appears, read: TR-FRET counterscreen, Table 8E, additional compounds.
Where [5] appears, read: TR-FRET, Table 8E, additional compounds, read-out: PCSK9/EGF(A) IC50.
Where [6] appears, read: TR-FRET, read-out: PCSK9Δhelix/Ab20 IC50.

T1 sequence (Q8NBP7 with tags, fused parts or gaps limits assumed): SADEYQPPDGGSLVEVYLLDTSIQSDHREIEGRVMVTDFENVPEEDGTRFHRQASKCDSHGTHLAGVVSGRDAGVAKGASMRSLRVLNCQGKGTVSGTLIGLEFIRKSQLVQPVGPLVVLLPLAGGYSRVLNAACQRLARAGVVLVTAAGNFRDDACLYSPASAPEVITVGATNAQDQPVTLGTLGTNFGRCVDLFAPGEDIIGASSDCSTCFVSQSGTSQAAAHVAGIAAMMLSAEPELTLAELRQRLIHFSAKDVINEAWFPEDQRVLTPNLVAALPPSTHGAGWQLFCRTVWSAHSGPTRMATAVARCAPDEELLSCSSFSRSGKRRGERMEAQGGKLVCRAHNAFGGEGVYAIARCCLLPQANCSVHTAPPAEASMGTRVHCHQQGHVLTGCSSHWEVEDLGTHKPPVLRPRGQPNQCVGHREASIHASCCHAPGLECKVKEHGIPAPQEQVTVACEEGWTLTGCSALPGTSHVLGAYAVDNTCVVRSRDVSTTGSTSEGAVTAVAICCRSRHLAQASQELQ
T1 sequence (Q8NBP7 31-152 partner limits assumed): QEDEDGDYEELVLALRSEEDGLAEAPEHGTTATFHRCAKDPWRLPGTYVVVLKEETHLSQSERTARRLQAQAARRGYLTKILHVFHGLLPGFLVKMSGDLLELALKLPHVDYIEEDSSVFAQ
Chain of PCSK9 (Q8NBP7 153-692): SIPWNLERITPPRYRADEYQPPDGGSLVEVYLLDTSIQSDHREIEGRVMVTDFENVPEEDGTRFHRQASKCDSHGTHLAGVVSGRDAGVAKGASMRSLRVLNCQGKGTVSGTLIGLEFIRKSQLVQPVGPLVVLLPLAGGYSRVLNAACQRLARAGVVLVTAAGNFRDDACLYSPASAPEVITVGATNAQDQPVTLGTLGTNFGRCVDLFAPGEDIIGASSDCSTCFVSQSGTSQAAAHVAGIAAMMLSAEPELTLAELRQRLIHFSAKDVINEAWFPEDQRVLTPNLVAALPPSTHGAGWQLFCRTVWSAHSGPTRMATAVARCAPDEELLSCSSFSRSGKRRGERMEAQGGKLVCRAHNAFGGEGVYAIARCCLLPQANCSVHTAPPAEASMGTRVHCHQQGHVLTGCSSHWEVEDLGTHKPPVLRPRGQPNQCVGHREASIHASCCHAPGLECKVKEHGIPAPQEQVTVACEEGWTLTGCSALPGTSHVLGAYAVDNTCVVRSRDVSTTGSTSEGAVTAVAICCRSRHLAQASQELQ
Chain of PCSK9 (Q8NBP7 31-152 partner limits assumed): as the sequence (Q8NBP7 31-152 partner limits assumed) above

Consider `CC(=O)N[C@H](C(=O)N[C@H](C(=O)N[C@@H](Cc1ccccc1)C(=O)N[C@H](C(=O)N[C@@H](CO)C(=O)N[C@@H](Cc1c[nH]c2ccccc12)C(=O)N[C@@H](CCC(=O)O)C(=O)N[C@@H](CCC(=O)O)C(=O)N[C@@H](Cc1ccc(O)cc1)C(=O)N[C@@H](CC(C)C)C(=O)N[C@@H](CC(=O)O)C(=O)N[C@@H](Cc1c[nH]c2ccccc12)C(=O)N[C@H](C(=O)NCC(=O)N[C@@H](CO)C(=O)NCC(=O)N[C@H]1CSSC[C@@H](C(N)=O)NC(=O)CNC(=O)[C@H](CCC(N)=O)NC(=O)[C@H](CO)NC(=O)CNC(=O)[C@H](C(C)C)NC(=O)[C@H](CCCNC(=N)N)NC(=O)[C@H](CCCCN)NC(=O)[C@H](CC(C)C)NC(=O)[C@H](CC(N)=O)NC(=O)[C@H](Cc2c[nH]c3ccccc23)NC1=O)C(C)C)[C@@H](C)O)C(C)C)[C@@H](C)O` [Compound 12] (Ac-TVFTSWEEYLDWVGSGCWNLKRVGSQGC-NH2; disulfide 17-28), for which the IC50 in test [1] (counterscreen, Example 7) was above 50 µM.

`CC[C@H](C)[C@@H]1NC(=O)[C@H](CCCNC(=N)N)NC(=O)[C@H](CCC(N)=O)NC(=O)[C@H](CC(C)C)NC(=O)[C@H](CC(N)=O)NC(=O)[C@H](Cc2c[nH]c3ccccc23)NC(=O)[C@@H]2C(O)CCN2C(=O)[C@H](CC(C)C)NC(=O)[C@H](CCCNC(=N)N)NC(=O)[C@@H](NC(=O)CNC(=O)[C@H](CO)NC(C)=O)CSSC[C@@H](C(N)=O)NC(=O)[C@@H]2CCCN2C(=O)[C@H](CC(C)C)NC(=O)CNC1=O` (stereo partly shown) [Compound 37] (Ac-SGCRL[X9]WNLQRIGLPC-NH2; disulfide 3-16) displayed an IC50 in test [1] (TR-FRET counterscreen, Table 8D, * = some inhibition at highest concentrations, not sufficient to fit an IC50) above 50 µM.

Consider `CCCCC(=O)N[C@@H](Cc1c[nH]c2cc(Br)ccc12)C(=O)N[C@@H](CC(N)=O)C(=O)N[C@@H](CC(C)C)C(=O)N[C@H](C(=O)N[C@@H](CCCNC(=N)N)C(=O)N[C@H](C(=O)NCC(=O)N[C@@H](CC(C)C)C(=O)N[C@H](C(=O)N[C@@H](CCCNC(=N)N)C(N)=O)[C@@H](C)O)[C@@H](C)CC)C(C)C` [Compound 187] (Pentanoyl-[Trp(6-Br)]NLVRIGLTR-NH2), for which the IC50 in test [1] (setting [4]) amounted to 38 µM.

Turning to `CC[C@H](C)[C@H](NC(=O)[C@H](CCCCNC(=N)N)NC(=O)[C@@H](NC(=O)[C@H](CC(C)C)NC(=O)[C@H](CC(N)=O)NC(=O)[C@H](Cc1c[nH]c2ccccc12)NC(=O)CCc1ccc(O)c(OC)c1)C(C)C)C(=O)NCC(=O)N[C@@H](CC(C)C)C(=O)N[C@@H](CC(C)C)C(=O)N[C@@H](CC(N)=O)C(N)=O` [Compound 238] (X25-WNLV[hArg]IGLLN-NH2), the figures for the IC50 in test [2] (setting [5]) and in test [3] (setting [6]) were 7.7 µM and 0.33 µM, respectively.

`CC[C@H](C)[C@H](NC(=O)[C@H](CCCCNC(=N)N)NC(=O)[C@@H](NC(=O)[C@H](CC(C)C)NC(=O)[C@H](CC(N)=O)NC(=O)[C@H](Cc1c[nH]c2ccccc12)NC(=O)CCc1ccc(O)c(OC)c1)C(C)C)C(=O)NCC(=O)N[C@@H](CCC(N)=O)C(=O)N[C@@H](CCCNC(=N)N)C(N)=O` [Compound 239] (X25-WNLV[hArg]IGQR-NH2): the IC50 in test [2] worked out at 32 µM; in test [3] (PCSK9Δhelix/Ab20 IC50, TR-FRET) it was 1.2 µM.

As for `CC[C@H](C)[C@H](NC(=O)[C@H](CCCCNC(=N)N)NC(=O)[C@@H](NC(=O)[C@H](CC(C)C)NC(=O)[C@H](CC(N)=O)NC(=O)[C@H](Cc1c[nH]c2ccccc12)NC(=O)CCc1ccc(O)c(OC)c1)C(C)C)C(=O)NCC(=O)N[C@@H](CC(N)=O)C(=O)N[C@@H](CCCNC(=N)N)C(N)=O` [Compound 240] (X25-WNLV[hArg]IGNR-NH2), the IC50 is 31 µM in test [2] (setting [5]) and 0.92 µM in test [3] (setting [6]).

`CC[C@H](C)[C@@H]1NC(=O)[C@H](CCCNC(=N)N)NC(=O)[C@H](CCC(N)=O)NC(=O)[C@H](CC(C)C)NC(=O)[C@H](CC(N)=O)NC(=O)[C@H](Cc2c[nH]c3ccccc23)NC(=O)[C@@H]2C(O)CCN2C(=O)[C@H]([C@@H](C)CC)NC(=O)[C@H](Cc2ccccc2)NC(=O)[C@@H](NC(=O)CNC(=O)[C@H](CO)NC(C)=O)CSSC[C@@H](C(N)=O)NC(=O)[C@H](CC(C)C)NC(=O)[C@H](CC(C)C)NC(=O)CNC1=O` (stereo partly shown) [Compound 242] (Ac-SGCFI[X9]WNLQRIGLLC-NH2; disulfide 3-16) returned an IC50 in test [1] (setting [4]) of at least 50 µM.
